Results taken from patent publication US12350273B2, “Treatment of SMA” (Hoffmann-La Roche Inc., priority 2017, dated 2025).

How the values were obtained:
[1] = test system: FOXM1B/C transcript variants; experiment: FOXM1B/C mRNA expression in human iPSCs (RT-qPCR); assay type: cell-based; settings: 24 h
Experimental: (§1) FIG. 5A-FIG. 5B: Effect of RO7034067 on FOXM1 mRNA expression levels in human and Cynomolgus monkey iPSCs • Cells were treated with RO7034067 for 24 hours, and FOXM1 B/C transcript variants were analyzed by RT-PCR. Data represent means±SEM of 3 repetitions and are expressed as fold change vs. controls. IC50 values are indicated. FIG. 5A. human iPSCs. FIG. 5B. Cynomolgus monkey iPSCs
(§2) Human iPSCs (hIPS_Neo_Clone_1) were cultivated in mTeSR1 (Stem Cell Technologies) as standard medium and Cynomolgus monkey iPSCs (cips_54-1285_cFIB_Clone_8) in MT medium supplemented with 10 ng/ml ActivinA and 15 ng/ml FGF2.
(§3) For gene expression profiling, stem cells were detached with Accutase (Stem Cell Technologies) and plated in 12 well plates coated with Matrigel (BD Biosciences) in the respective standard medium supplemented with 10 μM Rock inhibitor Y-27632 (Sigma-Aldrich). In order to obtain enough RNA, monkey stem cells were seeded at 15000 cells/cm2 and human stem cells were seeded at 40000 cells/cm2 24 h prior to treatment. Thereafter stem cells were treated for 24 h with serial dilutions (1:5) of test items in fresh, pre-warmed medium in a concentration range from 0.64 nM till ˜10 μM. To stop the experiment, cells were lysed in QiaGen's lysis buffer RLT with beta-mercaptoethanol.
(§4) Human and Cynomolgus monkey mRNA expression was measured with customized primer and FAM fluorescently-labeled Universal Probe Library (UPL) probes from Roche or probes from Microsynth containing a 5′ FAM label and a 3′ terminal BlackHole Dark Quencher 1 (BHQ1). The sequences of the primer and FAM labeled probes are listed as follows:
(§5) For quantitative Real-Time-PCR, cells cultivated in a 12 well plate and treated with Roche-compounds for 24 h were lysed in 500 ul/well of QiaGen's lysis buffer RLT with beta-mercaptoethanol. Total RNA was extracted with the RNeasy Mini kit combined with DNase treatment on a solid support. RNA integrity was controlled by using Nanodrop absorption spectroscopy and microfluidic capillary array electrophoresis profiles from an Agilent Bioanalyzer
(§6) 2100. Between 300 ng to 800 ng of total RNA were reverse transcribed with oligo-dT primer and spiked MS2 RNA at 10 ng/uL final concentration using the Transcriptor First Strand cDNA Synthesis Kit (Roche Applied Science #04379012001) following the manufacturer's recommended protocol. The quantitative PCR was performed on a LightCycler 480 qPCR machine using 67.5 ng total RNA derived cDNA as input in a 20 μl mixture containing 1× LightCycler 480 Probes Master, 0.4 μM forward and reverse primers, and 0.2 μM FAM labeled hydrolysis probe. The temperature program consisted of pre-incubation at 95° C. for 10 min, followed by 50 cycles of amplification (95° C. for 10 s, 60° C. for 30 s, 72° C. for 5 s). Negative control reactions were conducted in the absence of cDNA template to confirm absence of cDNA contamination in the master mix. Measurements of Ct (cycle threshold)-values were performed for each sample-mRNA combination. Using the 2-ΔΔCt method (Livak K J et al. Method. Methods. 2001; 25(4):402-8), the data are presented as the fold change in gene expression normalized to an endogenous reference gene and relative to the untreated control. To derive individual ΔCt values, the Ct value for each target mRNA of each sample was normalized to the Ct value of the endogenous reference mRNA of GAPDH (glyceraldehyde-3-phosphate dehydrogenase). The […] was calculated by subtracting the ΔCt value of the vehicle-control group from the respective ΔCt value of each treatment group. Resultant expression ratios (2-ΔΔCt) mirrored treatment-related mRNA expression changes versus vehicle-controls. […] The model to derive the IC50 assumes that the dose response curves has a standard slope, equal to a Hill slope (or slope factor) of −1.0. Model equation: Y=Bottom+(Top-Bottom)/(1+10^((X-Log IC50))); with Y being the response data and X being log 10 concentrations in μM.

Melanin binding in vitro = assay type: in vitro ADME
retina = experiment: 39-week monkey toxicity study: retina effects (ERG, sdOCT, histopathology), NOAEL; settings: for ERG B-wave amplitude, left eye / ERG B-wave amplitude, right eye: Animal 0114 (female, 7.5/5 mg/kg/day)
[2] = as above; settings: cynomolgus monkey; for AUC(0-t): plasma
[3] = test system: FOXM1B/C transcript variants; experiment: FOXM1B/C mRNA expression in Cynomolgus monkey iPSCs (RT-qPCR); assay type: cell-based; settings: 24 h; for Mean FOXM1B/C relative mRNA expression (2-ΔΔCt vs control): Cynomolgus monkey iPSCs
Experimental: as §1, §2, §3, §4, §5, §6

With `Cc1cn2nc(-c3cc(=O)n4cc(N5CCNC6(CC6)C5)ccc4n3)cc(C)c2n1` [RO7034067, 7-(4,7-diazaspiro[2.5]octan-7-yl)-2-(2,8-dimethylimidazo[1,2-b]pyridazin-6-yl)pyrido[1,2-a]pyrimidin-4-one] the “Mean FOXM1B/C relative mRNA expression (2^-ΔΔCt vs control)” value ([1]; 0.64 nM) was 1.115, the “Mean FOXM1B/C relative mRNA expression (2^-ΔΔCt vs control)” value ([1]; 3.2 nM) was 1.032 and the “Mean FOXM1B/C relative mRNA expression (2^-ΔΔCt vs control)” value ([1]; 16 nM) was 0.898. For the same compound, the “Mean FOXM1B/C relative mRNA expression (2^-ΔΔCt vs control)” value ([1]; 80 nM) was 0.748, the “Mean FOXM1B/C relative mRNA expression (2^-ΔΔCt vs control)” value ([1]; 400 nM) was 0.178 and the “Mean FOXM1B/C relative mRNA expression (2^-ΔΔCt vs control)” value ([1]; 2000 nM) was 0.185. For the same compound, the “Mean FOXM1B/C relative mRNA expression (2^-ΔΔCt vs control)” value ([1]; 10000 nM) was 0.102, the IC50 ([1]; iPSC, read-out: IC50 on expression levels of FOXM1B/C) was 114 nM and the melanin binding (Melanin binding in vitro) was “high melanin binding”. The “animals noted with ERG deficits” value (retina; 1.5 mg/kg/day) was “No animals”, the “retinal appearance by sdOCT” value (retina; 1.5 mg/kg/day) was “retained a normal retinal appearance” and the “AUC0-24h exposure free of retina effects (NOEL/NOAEL of the retina finding), females” value (retina; 1.5 mg/kg/day, 39 weeks, females) was 2060 ng·h/mL. The “AUC0-24h exposure free of retina effects (NOEL/NOAEL of the retina finding), males” value (retina; 1.5 mg/kg/day, 39 weeks, males) was 1870 ng·h/mL, the “animals with adverse histopathologic degeneration in mid to peripheral retina” value (retina; 3 mg/kg/day) was “one female” and the “animals with adverse histopathologic degeneration in mid to peripheral retina” value (retina; 7.5/5 mg/kg/day) was “two animals/sex”. For the same compound, the “ERG finding in several animals” value (retina; 7.5/5 mg/kg/day, Week 20 of the dosing phase) was “markedly depressed scotopic and photopic ERGs”, the “primary finding of 39-week administration” value (retina; 7.5/5 mg/kg/day, correlated with nonadverse epidermal hyperplasia) was “clinical signs in the skin” and the “reversibility of retinal degeneration (histopathology)” value (retina; 22-week recovery period) was “not reversible during the recovery period”. The “recovery of MMD and depressed ERG” value (retina; 22-week recovery phase) was “almost fully recovered”, the “ERG B-wave amplitude, left eye” value (retina; recovery Week 22) was 52.7 mcV and the “ERG B-wave amplitude, right eye” value (retina; recovery Week 22) was 43.4 mcV. The “ERG B-wave amplitude, left eye” value (retina; recovery week 8) was 33.5 mcV, the “ERG B-wave amplitude, right eye” value (retina; recovery week 8) was 34.1 mcV and the “lowest AUC0-24h exposure at the mid-dose with retina findings” value (from here on “lowest AUC0-24h exposure at the mid-dose”) (retina; animal No. 11) was 4540 ng·h/mL. For the same compound, the “lowest AUC0-24h exposure at the mid-dose” value (retina; animal No. 109) was 4560 ng·h/mL, the “lowest AUC0-24h exposure at the mid-dose” value (retina; animal No. 111) was 4560 ng·h/mL and the “animals with rod ERGs below the criteria” value (retina; females, 1 mg/kg/day, Week 34) was “Two”. The “animals with depressed rod responses (ERG grading)” value (shortened to “animals … (ERG grading)”) (retina; females, 3 mg/kg/day, Week 22) was “all three”, the “animals … (ERG grading)” value (retina; females, 3 mg/kg/day, Week 27) was “none” and the “animals … (ERG grading)” value (retina; females, 3 mg/kg/day, Week 35) was 1 of 3. For the same compound, the “animals … (ERG grading)” value (retina; females, 7.5/5 mg/kg/day, Week 20) was 4 of 5, the “animals … (ERG grading)” value (retina; females, 7.5/5 mg/kg/day, Week 26) was 2 of 5 and the “animals … (ERG grading)” value (retina; females, 7.5/5 mg/kg/day, Week 34) was 4 of 5. For the same compound, the “individual AUC0-24h exposure free of effects on the retina” value (retina; individual animals, end of study) was “up to 2300 ng·h/mL”, the ERG finding (retina; intermediate and low dose groups (3.0 and 1.5 mg/kg/day), dosing phase) was “generally remained within expected limits” and the “animals with rod response below the expected range” value (retina; males, 1 mg/kg/day) was “No males”. The “animals … (ERG grading)” value (retina; males, 3 mg/kg/day, Week 22) was 1 of 3, the “animals … (ERG grading)” value (retina; males, 3 mg/kg/day, Week 26 or 35) was “none” and the sdOCT finding (retina; males, 3 mg/kg/day, Weeks 22, 27 and 35) was “minimal/mild retinal disorganization in the periphery”. The “animals … (ERG grading)” value (retina; males, 7.5/5 mg/kg/day, Week 20) was “Four of five”, the “animals … (ERG grading)” value (retina; males, 7.5/5 mg/kg/day, Week 26) was 2 of 5 and the “animals … (ERG grading)” value (retina; males, 7.5/5 mg/kg/day, Week 34) was 5 of 5. It also gave an NOAEL at 39 weeks ([2]; both, in vivo, po) of 1.5 mg/kg/day, an AUC(0-t) ([2]; oral) of 4260 ng·h/mL and an AUC(0-t) ([2]; female, po, 3 mg/kg/day) of 4850 ng·h/mL. It also gave an AUC(0-t) ([2]; female, po, 5 mg/kg/day) of 6470 ng·h/mL, an AUC(0-t) ([2]; male, po, 3 mg/kg/day) of 4880 ng·h/mL and an AUC(0-t) ([2]; male, po, 5 mg/kg/day) of 5880 ng·h/mL. For the same compound, the “Mean FOXM1B/C relative mRNA expression (2-ΔΔCt vs control)” value ([3]; 0.64 nM) was 0.967, the “Mean FOXM1B/C relative mRNA expression (2-ΔΔCt vs control)” value ([3]; 3.2 nM) was 0.990 and the “Mean FOXM1B/C relative mRNA expression (2-ΔΔCt vs control)” value ([3]; 16 nM) was 0.963. For the same compound, the “Mean FOXM1B/C relative mRNA expression (2-ΔΔCt vs control)” value ([3]; 80 nM) was 0.704, the “Mean FOXM1B/C relative mRNA expression (2-ΔΔCt vs control)” value ([3]; 400 nM) was 0.176 and the “Mean FOXM1B/C relative mRNA expression (2-ΔΔCt vs control)” value ([3]; 2000 nM) was 0.023. For the same compound, the “Mean FOXM1B/C relative mRNA expression (2-ΔΔCt vs control)” value ([3]; 10000 nM) was 0.037 and the IC50 ([3]; Macaca fascicularis, iPSC, monkey iPSCs, read-out: IC50 on expression levels of FOXM1B/C) was 155 nM.
